# Reference: patent publication US9896441B2 (Lycera Corporation, priority 2014, dated 2018)
# Assays:
# [1] = molecular target: T1, RORγ-LBD (Homo sapiens, UniProt P51449); test: RORγ-Ligand Binding Domain (LBD) TR-FRET Assay; assay type: biochemical; conditions: for TR-FRET Assay Max Response: maximum response;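 for TR-FRET Assay Max Response: 665/615 nm signal ratio set to 100 without ursolic acid or test compound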
# T1 construct: made in house; host or cells: SF9 cells (baculovirus); used as diluted lysate
# T1 sequence (P51449 269-508 limits assumed): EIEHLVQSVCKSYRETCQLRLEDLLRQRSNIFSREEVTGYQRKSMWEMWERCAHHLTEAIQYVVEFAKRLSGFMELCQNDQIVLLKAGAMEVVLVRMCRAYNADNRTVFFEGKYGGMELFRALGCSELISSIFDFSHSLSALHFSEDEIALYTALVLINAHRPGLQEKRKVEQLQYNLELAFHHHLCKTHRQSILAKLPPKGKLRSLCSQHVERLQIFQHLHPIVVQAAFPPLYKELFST
# Method in brief: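 Lysate from SF9 cells expressing His-RORγ-LBD is diluted to about 3 nM final in 50 mM Tris pH 7.0 assay buffer. A biotin-tagged SRC1 LXXLL peptide goes in at 200 nM final, plus ursolic acid at 2 μM final. Test compounds carry 1% DMSO final; signal read by TR-FRET.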
# [2] = molecular target: T2, Gal4-RORγ-LBD (Homo sapiens, UniProt P51449); test: Gal4-RORγ Luciferase Reporter Assay in HEK-293T Cells; assay type: cell-based; conditions: HEK-293 cells, luciferase reporter; for Gal4-RORγ Assay Max Response: maximum response
# T2 construct: expressed in transfected cells
# T2 sequence (P51449 269-508 limits assumed): T1 sequence (P51449 269-508 limits assumed)
# Method in brief: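 Max Response was taken as the upper plateau of a 4-parameter logistic fit of luciferase signal, normalized to 100 for wells without ursolic acid or compound. Transiently Gal4-RORγ-LBD/Gal4-luc transfected HEK-293 cells carrying […] ursolic acid were incubated with test compounds (0.2% DMSO) overnight at 37 °C and read with One-Glo.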
Compound,EC50 ([1]; RORγ-LBD TR-FRET) [nM],EC50 ([2]; with ursolic acid) [nM],EC50 ([1]; RORγ-LBD TR-FRET assay) [nM],TR-FRET Assay Max Response ([1]; RORγ-LBD TR-FRET assay),EC50 ([2]; in presence of ursolic acid) [nM],Gal4-RORγ Assay Max Response ([2]; in presence of ursolic acid)
"CC(=O)N[C@H](C)[C@H]1CN(S(=O)(=O)c2cccc(C(F)(F)F)c2)c2cc(/C=C(\C)c3c(F)cccc3Cl)ccc2O1 [Example 103, N—((R)-1-((R)-6-((E)-2-(2-Chloro-6-fluorophenyl)prop-1-en-1-yl)-4-((3-(trifluoromethyl)phenyl)sulfonyl)-3,4-dihydro-2H-benzo[b][1,4]oxazin-2-yl)ethyl)acetamide]",< 500,< 500,–,–,–,–
"CCn1cc(S(=O)(=O)N2C[C@H]([C@@H](C)NS(C)(=O)=O)Oc3ccc(/C=C(\C)c4c(F)cccc4Cl)cc32)c(Cl)n1 [Example 104, N—((R)-1-((R)-4-((3-Chloro-1-ethyl-1H-pyrazol-4-yl)sulfonyl)-6-((E)-2-(2-chloro-6-fluorophenyl)prop-1-en-1-yl)-3,4-dihydro-2H-benzo[b][1,4]oxazin-2-yl)ethyl)methanesulfonamide]",–,–,< 500,*** (a value in the range of greater than 150 to 200),> 10000,–
"C/C(=C\c1ccc2c(c1)N(S(=O)(=O)c1cccc(C(F)(F)F)c1)C[C@H]([C@@H](C)NS(C)(=O)=O)O2)c1c(F)cccc1Cl [Example 105, N—((R)-1-((R)-6-((E)-2-(2-Chloro-6-fluorophenyl)prop-1-en-1-yl)-4-((3-(trifluoromethyl)phenyl)sulfonyl)-3,4-dihydro-2H-benzo[b][1,4]oxazin-2-yl)ethyl)methanesulfonamide]",–,–,< 500,** (a value in the range of greater than 90 to 150),< 500,** (a value in the range of greater than 90 to 150)
"C/C(=C\c1ccc2c(c1)N(S(=O)(=O)c1cccc(C(F)(F)F)c1)C[C@H](CCO)O2)c1c(F)cccc1Cl [Example 106, (S,E)-2-(6-(2-(2-Chloro-6-fluorophenyl)prop-1-en-1-yl)-4-((3-(trifluoromethyl)phenyl)sulfonyl)-3,4-dihydro-2H-benzo[b][1,4]oxazin-2-yl)ethanol]",–,–,< 500,*** (a value in the range of greater than 150 to 200),< 500,** (a value in the range of greater than 90 to 150)
"C/C(=C\c1ccc2c(c1)N(S(=O)(=O)c1cccc(C(F)(F)F)c1)C[C@H](CC(=O)O)O2)c1c(F)cccc1Cl [Example 107, (S,E)-2-(6-(2-(2-Chloro-6-fluorophenyl)prop-1-en-1-yl)-4-((3-(trifluoromethyl)phenyl)sulfonyl)-3,4-dihydro-2H-benzo[b][1,4]oxazin-2-yl)acetic acid]",–,–,< 500,** (a value in the range of greater than 90 to 150),500 to 5000,** (a value in the range of greater than 90 to 150)
"COc1cc(S(=O)(=O)N2C[C@H](CNC(C)=O)Oc3c(F)cc(/C=C(\C)c4c(F)cccc4Cl)cc32)ccc1F [Example 108, (S,E)-N-((6-(2-(2-Chloro-6-fluorophenyl)prop-1-en-1-yl)-8-fluoro-4-((4-fluoro-3-methoxyphenyl)sulfonyl)-3,4-dihydro-2H-benzo[b][1,4]oxazin-2-yl)methyl)acetamide]",–,–,< 500,** (a value in the range of greater than 90 to 150),< 500,* (a value in the range of 30 to 90)
"CCn1cc(S(=O)(=O)N2C[C@H](CNC(C)=O)Oc3c(F)cc(/C=C(\C)c4c(F)cccc4Cl)cc32)c(Cl)n1 [Example 109A, (S,E)-N-((4-((3-chloro-1-ethyl-1H-pyrazol-4-yl)sulfonyl)-6-(2-(2-chloro-6-fluorophenyl)prop-1-en-1-yl)-8-fluoro-3,4-dihydro-2H-benzo[b][1,4]oxazin-2-yl)methyl)acetamide]",–,–,< 500,*** (a value in the range of greater than 150 to 200),< 500,* (a value in the range of 30 to 90)
"COc1cc(S(=O)(=O)N2C[C@H](CNC(C)=O)Oc3ccc(/C=C(\C)c4c(F)cccc4Cl)cc32)ccc1F [Example 109B, (S,E)-N-((6-(2-(2-chloro-6-fluorophenyl)prop-1-en-1-yl)-4-((4-fluoro-3-methoxyphenyl)-sulfonyl)-3,4-dihydro-2H-benzo[b][1,4]oxazin-2-yl)methyl)acetamide]",–,–,< 500,** (a value in the range of greater than 90 to 150),< 500,* (a value in the range of 30 to 90)
"CC(=O)NC[C@H]1CN(S(=O)(=O)c2cccc(C(F)(F)F)c2)c2cc(/C=C(\C)c3c(F)cccc3Cl)ccc2O1 [Example 109C, (S,E)-N-((6-(2-(2-chloro-6-fluorophenyl)prop-1-en-1-yl)-4-((3-(trifluoromethyl)phenyl)-sulfonyl)-3,4-dihydro-2H-benzo[b][1,4]oxazin-2-yl)methyl)acetamide]",–,–,< 500,** (a value in the range of greater than 90 to 150),< 500,** (a value in the range of greater than 90 to 150)
"CCn1cc(S(=O)(=O)N2C[C@H](CNC(C)=O)Oc3ccc(/C=C/c4c(F)cccc4Cl)cc32)c(Cl)n1 [Example 109D, (S,E)-N-((4-((3-chloro-1-ethyl-1H-pyrazol-4-yl)sulfonyl)-6-(2-chloro-6-fluorostyryl)-3,4-dihydro-2H-benzo[b][1,4]oxazin-2-yl)methyl)acetamide]",–,–,< 500,*** (a value in the range of greater than 150 to 200),500 to 5000,** (a value in the range of greater than 90 to 150)
"CCn1cc(S(=O)(=O)N2C[C@H](CNC(C)=O)Oc3ccc(/C=C/c4ncccc4Cl)cc32)c(Cl)n1 [Example 109E, (S,E)-N-((4-((3-chloro-1-ethyl-1H-pyrazol-4-yl)sulfonyl)-6-(2-(3-chloropyridin-2-yl)vinyl)-3,4-dihydro-2H-benzo[b][1,4]-oxazin-2-yl)methyl)acetamide]",–,–,< 500,**** (a value greater than 200),500 to 5000,** (a value in the range of greater than 90 to 150)
"CCOc1ncc(C(F)(F)F)cc1S(=O)(=O)N1C[C@H](CNC(=O)CCC(=O)O)Oc2ccc(/C=C/c3c(F)cccc3Cl)cc21 [Example 109F, (S,E)-4-(((6-(2-chloro-6-fluorostyryl)-4-((2-ethoxy-5-(trifluoro-methyl)pyridin-3-yl)sulfonyl)-3,4-dihydro-2H-benzo[b][1,4]oxazin-2-yl)methyl)amino)-4-oxobutanoic acid]",–,–,< 500,*** (a value in the range of greater than 150 to 200),500 to 5000,** (a value in the range of greater than 90 to 150)
"C/C(=C\c1ccc2c(c1)N(S(=O)(=O)c1cccc(C(F)(F)F)c1)C[C@H](CCNC(=O)OC(C)(C)C)O2)c1c(F)cccc1Cl [Example 110, tert-Butyl (S,E)-(2-(6-(2-(2-chloro-6-fluorophenyl)prop-1-en-1-yl)-4-((3-(trifluoromethyl)phenyl)sulfonyl)-3,4-dihydro-2H-benzo[b][1,4]oxazin-2-yl)ethyl)carbamate]",–,–,< 500,*** (a value in the range of greater than 150 to 200),500 to 5000,** (a value in the range of greater than 90 to 150)
"C/C(=C\c1ccc2c(c1)N(S(=O)(=O)c1cccc(C(F)(F)F)c1)C[C@H](CCN)O2)c1c(F)cccc1Cl [Example 111, (S,E)-2-(6-(2-(2-Chloro-6-fluorophenyl)prop-1-en-1-yl)-4-((3-(trifluoromethyl)phenyl)sulfonyl)-3,4-dihydro-2H-benzo[b][1,4]oxazin-2-yl)ethan-1-amine]",–,–,< 500,*** (a value in the range of greater than 150 to 200),500 to 5000,** (a value in the range of greater than 90 to 150)
"CC(=O)NCC[C@H]1CN(S(=O)(=O)c2cccc(C(F)(F)F)c2)c2cc(/C=C(\C)c3c(F)cccc3Cl)ccc2O1 [Example 112, (S,E)-N-(2-(6-(2-(2-Chloro-6-fluorophenyl)prop-1-en-1-yl)-4-((3-(trifluoromethyl)phenyl)sulfonyl)-3,4-dihydro-2H-benzo[b][1,4]oxazin-2-yl)ethyl)acetamide]",–,–,< 500,*** (a value in the range of greater than 150 to 200),< 500,** (a value in the range of greater than 90 to 150)
"C/C(=C\c1ccc2c(c1)N(S(=O)(=O)c1cccc(C(F)(F)F)c1)C[C@H](CCNC(=O)C1CC1)O2)c1c(F)cccc1Cl [Example 113, (S,E)-N-(2-(6-(2-(2-Chloro-6-fluorophenyl)prop-1-en-1-yl)-4-((3-(trifluoromethyl)phenyl)sulfonyl)-3,4-dihydro-2H-benzo[b][1,4]oxazin-2-yl)ethyl)cyclopropanecarboxamide]",–,–,< 500,*** (a value in the range of greater than 150 to 200),< 500,** (a value in the range of greater than 90 to 150)
